Earlier results on 14 compounds are cited in US20240350592A1, “COMPOSITION AND METHODS OF TREATMENT USING […]-ENHANCED SUPPLEMENTATION” (Xygenyx Inc., priority 2023, published 2024).

Square brackets hold non-standard residues; d marks the D form. Peptide text beside a SMILES is read from it. Cit = NC(=O)NCCC[C@H](N)C(=O)O

For data set [1] the following is noted: single penetration enhancer.
For data set [2] the following is noted: compared to α-tocopherol taken as 1.0.
The next data set relates to markers of inflammation. Particulars: individuals with metabolic syndrome.
The conditions of data set [3]: in vivo.
The next data set concerns depression. The settings on record: patients who did not respond to traditional antidepressant medications.
Data set [4] concerns skin. The settings on record: topical, concentrations 0.5-5%.
The subject of the next data set is F2-isoprostane. The settings on record: doses of 1600-3200 IU/day.
Data set [5] concerns neurodegenerative diseases such as Alzheimer's Syndrome or dementia. Particulars: dietary supplementation, doses up to 400 IU/day; controlled trials.
Another data set deals with coronary disease. The settings on record: dietary supplementation, doses up to 400 IU/day.
For the next data set, the system named is rheumatoid arthritis. The settings on record: arthritic subjects.
The conditions of data set [6]: in vivo. The source holds these as a separate data set.
Data set [7] relates to wide dynamic range neurons in the ventroposterolateral nucleus of the thalamus.
For data set [8], the system named is skin. The settings on record: topical formulations; within four weeks of treatment.
The conditions of data set [9]: even when dietary intake occurs in equal portions.

With `CC12CCC(CC1)C(C)(C)O2` [eucalyptol, 1,8-epoxy-p-menthane], in data set [1], the “factor of increase of transdermal drug uptake” value is recorded as “more than 10”. As to `Cc1cc(O)cc2c1O[C@](C)(CCC[C@H](C)CCC[C@H](C)CCCC(C)C)CC2` [δ-tocopherol], the relative biological activity in [2] is 0.03. In addition, the “markers of inflammation in the blood” value with markers of inflammation is given as “reduced”. For `CCNC(=O)CC[C@H](N)C(=O)O` [Theanine], the “dose generally considered safe and well-tolerated” value in [3] is “up to 400 mg per day”. For `CC(C)[C@@H]1CC[C@@H](C)C[C@H]1O` [Menthol], the “factor of increase of transdermal drug uptake” value in data set [1] was at least 10.

On to `CN1c2c([nH]c(N)nc2=O)NCC1CNc1ccc(C(=O)N[C@@H](CCC(=O)O)C(=O)O)cc1` (stereo partly shown) [5-MTHF, 5-methyltetrahydrofolate], for which, in the data set with depression, the symptoms of depression entry is on record as “improved”. As to `C=CCCCCCCCCC(=O)N[C@@H](Cc1ccccc1)C(=O)O` [UP, Undecylenoyl phenylalanine], in the data set on skin [4], the “time of treatment to skin lightening effects” value was at least 7 days.

With `C/C(=C\CO)CCC[C@H](C)CCC[C@H](C)CCCC(C)C` [Phytol], the solubility in water result is on record as “nearly insoluble in water”. For `Cc1cc(O)c(C)c2c1O[C@](C)(CCC[C@H](C)CCC[C@H](C)CCCC(C)C)CC2` [β-tocopherol], in [2], the relative biological activity is on record as 0.5.

Consider `Cc1c(C)c2c(c(C)c1O)CC[C@@](C)(CCC[C@H](C)CCC[C@H](C)CCCC(C)C)O2` [α-tocopherol], for which the “blood plasma concentration of F2-isoprostane” value with F2-isoprostane is recorded as “significantly lower”. Also, the “reduction of the risk of developing neurodegenerative diseases” value in data set [5] is on record as at most 24%. Besides, the “reduction of the risk of coronary disease” value with coronary disease is “up to 34%”. Regarding `C=C1CC/C=C(\C)CC[C@@H]2[C@@H]1CC2(C)C` [β-caryophyllene], in the data set with rheumatoid arthritis, the “number of circulating and articular leukocytes” value was “reduced”; the “swelling of joints and lymph nodes” value is “reduced”. “HGH: hormone comprising a peptide chain that is synthesized in the pituitary gland”: in data set [6], the biological half-life is reported as 10-20 minutes.

`CCCCCc1cc(O)c2c(c1)OC(C)(C)C1CCC(C)=CC21` (stereo not shown) [THC, Δ-9-tetrahydrocannabinol]: in [7], the “power in mediating pain compared to morphine” value is reported as “ten times more powerful than morphine”. With `CC[C@H](C)[C@H](NC(=O)[C@H](CC(=O)O)NC(=O)[C@@H](N)CCCCN)C(=O)N[C@@H](CCCNC(N)=O)C(N)=O` [tripeptide-10 citrulline, Tripeptide-10 citrulline] (H-KDI[Cit]-NH2), the improvement of suppleness with skin [8] is given as at most 54%. In the case of `Cc1c(O)cc2c(c1C)O[C@](C)(CCC[C@H](C)CCC[C@H](C)CCCC(C)C)CC2` [γ-tocopherol], the relative biological activity in [2] is 0.1. Besides, the “concentration in vivo relative to α-tocopherol” value in data set [9] is “roughly 10%”.
